Source: patent publication US11413239B2, “Pharmaceutical composition of tapentadol for nasal administration” (Torrent Pharmaceuticals Ltd., priority 2011, dated 2022)

Tests used:
[1] = cited from earlier work
[2] = Crystal formation in concentrated tapentadol solution on storage; type: physicochemical; details: increased concentration of tapentadol in solution, stored for more than 3 days
From the text: This makes the formulation non-homogeneous and therefore non-suitable for nasal administration. This crystal growth may further leads to altered therapeutic effect of the drug. Present invention overcomes this problem by providing a composition, wherein no such crystal growth is observed in the composition comprising high concentration of drug, when stored for longer duration.

CC[C@@H](c1cccc(O)c1)[C@@H](C)CN(C)C.Cl [Tapentadol, 3-[(1R,2R)-3-(dimethylamino)-1-ethyl-2-methylpropyl]phenol]
clearance ([1]; Eur. J. Drug Met and Pharmacokinetics 2007, 32, 163-169): 1468.+−.122 mL/min
time of maximum serum concentration ([1]; after oral dosing): around 1.25 hours
parent compound metabolized ([1]; given orally): About 97%
time to absorb after administration ([1]; oral formulations): at least 45 minutes
crystal formation on storage [2]: formation of crystals
